Results: paper PMC8778818, “Synthesis, Structural Characterization and Anticancer Activity of New 5-Trifluoromethyl-2-thioxo-thiazolo[4,5-d]pyrimidine Derivatives” (Pharmaceuticals, 2022)

How the values were obtained:
CCRF-CEM = test: NCI-60 screen, Leukemia CCRF-CEM; format: cell-based, human; conditions: 10^−5 M one dose
HCT-116 = test: NCI-60 screen, Colon Cancer HCT-116; format: cell-based, human; conditions: HCT-116, 10^−5 M one dose
MOLT-4 = test: NCI-60 screen, Leukemia MOLT-4; format: cell-based, human; conditions: MOLT-4, 10^−5 M one dose
NCI-H522 = test: NCI-60 screen, Non-Small Cell Lung Cancer NCI-H522; format: cell-based, human; conditions: NCI-H522, 10^−5 M one dose
HaCaT = test: MTT cell viability assay, HaCaT; format: cell-based, human; conditions: Homo sapiens; HaCaT normal cells, MTT, 72 h, mean ± SD
Method: Twelve compounds (2a-e, 3a-d and 4a-c) at a concentration range of 50–5000 μM were tested for their antiproliferative potential against four human cancer cell lines (A375—melanotic melanoma, C32—amelanotic melanoma, DU145—prostate cancer androgen-independent, MCF-7/WT—breast adenocarcinoma) and two normal cell lines: Chinese Hamster Ovary (CHO-K1) and immortalized human keratinocytes from histologically normal skin (HaCaT).
To determine the antiproliferative activity of newly synthesized compounds, the following cell lines were used: human melanotic melanoma cell line (A375), human amelanotic melanoma cell line (C32), human breast adenocarcinoma cell line (MCF-7/WT), human prostate cancer androgen-independent (DU145) and two normal cell lines: hamster ovarian (CHO-K1) and immortalized human keratinocytes from histologically normal skin (HaCaT). The cells were obtained from the cell line bank of the Department of Molecular and Cellular Biology, Wroclaw Medical University. A375, C32, MCF-7/WT, DU145 and HaCaT cells were grown in a monolayer cultured in Dulbecco’s Modified Eagle’s Medium (DMEM, Sigma-Aldrich, Poznań, Poland), supplemented with 10% of fetal bovine serum (FBS, Gibco, Paisley, UK) and 1% of antibiotics (penicillin/streptomycin, Sigma-Aldrich) and CHO-K1 were grown in HAM’s F-12 medium (Sigma-Aldrich), supplemented with 10% fetal bovine serum (FBS, Gibco) and 1% of antibiotics (penicillin/streptomycin, Sigma-Aldrich). Cell lines were cultured in the polystyrene flasks 25 or 75 cm^2 (Thermo Fisher Scientific, Waltham, MA, USA), which were stored in 37 °C and 5% CO2 in a humidified 95% atmosphere (SteriCult, Thermo Scientific, Alab). The cell medium was exchanged twice a week. The exponentially growing cells were used throughout the experiments. The cells were rinsed with phosphate-buffered saline (PBS, Sigma-Aldrich) and trypsinized by Trypsin-EDTA 0.25% solution (Sigma-Aldrich).
The influence of the compounds was performed in a monolayer culture on cancer and normal cells. Compounds were initially dissolved in DMSO; further dilutions of the compound were performed in Dulbecco’s Modified Eagle’s Medium supplemented with 10% FBS. Compounds were tested in a 50–5000 µM concentration range. In the in vitro experiments, the concentrations of DMSO in the final solution of the compounds were used 0.05%; 0.1%; 0.5%; 1%, respectively.
Cell viability was determined using the MTT colorimetric assay. All cell lines were seeded into 96-well plates to a density of 3 × 10^4 cells/well. After 24 h, the culture supernatants were removed and appropriate dilutions of compounds in the culture medium (200 µL/well) were added to the cells’ monolayer cultures and incubated for an additional 72 h. After 72 h of exposition to the compounds and the removal of the culture medium, cell viability was determined by reducing the yellow dye 3-(4,5-dimethyl-2-thiazol)-2,5-diphenyl-2H-tetrazolium bromide (MTT assay, Sigma Saint Louis, MO, USA; In Vitro Toxicology Assay) to a blue formazan product. The absorbance of the resulting solutions in three duplicate experiments was measured at the wavelength of 560 nm in a microplate reader (EnSpire, Perkin Elmer, Kraków, Poland). MTT assay is a colorimetric method that estimates the rate of metabolism in viable cells. Absorbance is directly proportional to the number of viable cells. All the experiments were performed three times and the mean absorbance values were calculated. The methodology for the evaluation of the growth of human cancer and normal cells was described previously. The cell viability in each group was expressed as a percentage of control (untreated) cells.

OVCAR-5 = test: NCI-60 screen, Ovarian Cancer OVCAR-5; format: cell-based, human; conditions: OVCAR-5, 10^−5 M one dose
SNB-75 = test: NCI-60 screen, CNS Cancer SNB-75; format: cell-based, human; conditions: SNB-75, 10^−5 M one dose
BT-549 = test: NCI-60 screen, Breast Cancer BT-549; format: cell-based, human; conditions: BT-549, 10^−5 M one dose
SF-295 = test: NCI-60 screen, CNS Cancer SF-295; format: cell-based, human; conditions: SF-295, 10^−5 M one dose
T-47D = test: NCI-60 screen, Breast Cancer T-47D; format: cell-based; conditions: T-47D, 10^−5 M one dose
HOP-92 = test: NCI-60 screen, Non-Small Cell Lung Cancer HOP-92; format: cell-based, human; conditions: HOP-92, 10^−5 M one dose
OVCAR-8 = test: NCI-60 screen, Ovarian Cancer OVCAR-8; format: cell-based, human; conditions: OVCAR-8, 10^−5 M one dose
OVCAR-4 = test: NCI-60 screen, Ovarian Cancer OVCAR-4; format: cell-based, human; conditions: OVCAR-4, 10^−5 M one dose
SN12C = test: NCI-60 screen, Renal Cancer SN12C; format: cell-based; conditions: 10^−5 M one dose
SW620 = test: NCI-60 screen, Colon Cancer SW620; format: cell-based, human; conditions: SW620, 10^−5 M one dose
LOX IMVI = test: NCI-60 screen, Melanoma LOX IMVI; format: cell-based, human; conditions: 10^−5 M one dose
SR = test: NCI-60 screen, Leukemia SR; format: cell-based, human; conditions: 10^−5 M one dose
HL-60(TB) = test: NCI-60 screen, Leukemia HL-60(TB); format: cell-based, human; conditions: 10^−5 M one dose
CAKI-1 = test: NCI-60 screen, Renal Cancer CAKI-1; format: cell-based, human; conditions: CAKI-1, 10^−5 M one dose
TK-10 = test: NCI-60 screen, Renal Cancer TK-10; format: cell-based, human; conditions: TK-10, 10^−5 M one dose
NCI-H460 = test: NCI-60 screen, Non-Small Cell Lung Cancer NCI-H460; format: cell-based, human; conditions: NCI-H460, 10^−5 M one dose

## Fc1ccc(CNc2nc(C(F)(F)F)nc3c2sc(=S)n3-c2ccccc2)cc1 [Compound 4c]
CCRF-CEM
  Growth of Cells (%): 102.97%
HCT-116
  Growth of Cells (%): 111.01%
MOLT-4
  Growth of Cells (%): 96.58%
NCI-H522
  Growth of Cells (%): 90.73%
HaCaT
  IC50: 565 ± 24.7 µM
OVCAR-5
  Growth of Cells (%): 102.72%
SNB-75
  Growth of Cells (%): 103.11%
BT-549
  Growth of Cells (%): 98.87%
SF-295
  Growth of Cells (%): 91.10%
T-47D
  Growth of Cells (%): 85.37%
HOP-92
  Growth of Cells (%): 106.96%
OVCAR-8
  Growth of Cells (%): 98.68%
OVCAR-4
  Growth of Cells (%): 125.04%
SN12C
  Growth of Cells (%): 101.41%
SW620
  Growth of Cells (%): 114.74%
LOX IMVI
  Growth of Cells (%): 109.59%
SR
  Growth of Cells (%): 94.72%
HL-60(TB)
  Growth of Cells (%): 93.41%
CAKI-1
  Growth of Cells (%): 94.38%
TK-10
  Growth of Cells (%): 130.70%
NCI-H460
  Growth of Cells (%): 109.73%
